Data as given in patent publication US10941157B2, “Pesticidal compositions and uses thereof” (Gilead Apollo, LLC, priority 2015, dated 2021).
In brackets after ≈: the same amount, converted by molar mass. Where two headings read alike, the source gives them in different places.

Tests used:
Botrtyis cinerea (Bc) = experiment: In vitro pathogen growth inhibition assay, Bc; type: cell-based; settings: 48 h, ≥90% inhibition; 48 hours vs 2% DMSO control; read-out: Compound Concentration (ppm) sufficient for ≥90% inhibition of growth, Bc
Method in brief: (§1)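 Value reported is the compound concentration reaching ≥90% growth inhibition, from OD readings at 24 and 48 h after blank subtraction, confirmed visually. Inoculum was spores diluted in 17% V8 medium, except Rs, using 1.5 mm mycelial plugs in ¼ PDB; actual compound concentration corrected via OD600.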

[1] = test system: Collectotrichum graminicola (Cg); experiment: In vitro pathogen growth inhibition assay, Cg; type: cell-based; settings: 48 h, ≥90% inhibition; 48 hours vs 2% DMSO control; read-out: Compound Concentration (ppm) sufficient for ≥90% inhibition of growth, Cg
Method in brief: as §1

Diplodia maydis (Dm) = experiment: In vitro pathogen growth inhibition assay, Dm; type: cell-based; settings: Stenocarpella maydis, 48 h, ≥90% inhibition; 48 hours vs 2% DMSO control; read-out: Compound Concentration (ppm) sufficient for ≥90% inhibition of growth, Dm
Method in brief: (§2)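 Spores in 17% V8 liquid medium, or 1.5 mm Rs mycelial plugs in ¼ PDB, incubated with compound; final concentration checked by OD600 for precipitation. OD readings at 24 and 48 h, blank-subtracted, plus visual ratings; value is concentration giving ≥90% growth inhibition.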

[2] = test system: Fusarium moniliforme (Fm); experiment: In vitro pathogen growth inhibition assay, Fm; type: cell-based; settings: Fusarium verticillioides
Method in brief: as §1

[3] = test system: Fusarium virguliforme (Fv); experiment: In vitro pathogen growth inhibition assay, Fv; type: cell-based
Method in brief: as §2

[4] = test system: Phytophthora capsici (Pc); experiment: In vitro pathogen growth inhibition assay, Pc; type: cell-based; settings: 48 h, ≥90% inhibition, 48 hours vs 2% DMSO control, read-out: Compound Concentration (ppm) sufficient for ≥90% inhibition of growth, Pc
Method in brief: as §2

Rhizoctonia solani (Rs) = experiment: In vitro pathogen growth inhibition assay, Rs (mycelial plugs); type: cell-based; settings: Rhizoctonia solani, 48 h, mycelial plugs
Method in brief: as §2

Septoria tritici (St) = experiment: In vitro pathogen growth inhibition assay, St; type: cell-based
Method in brief: as §1

[5] = test system: Blumeria graminis f. sp. hordei; experiment: Foliar protection test for barley powdery mildew control; type: in vivo; settings: foliar spray on Hordeum vulgare cv. Perry, inoculated 24 hours after treatment, evaluated 7 days later
Method in brief: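 Protective foliar test: compound atomized onto both leaf surfaces of 6-day-old Hordeum vulgare cv. Perry, followed after 24 h by spore-cloud inoculation from colonized untreated plants. Disease rated on leaves 7 days on, plants held at 20 to 22° C and 70% RH.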

Sphaerotheca fuliginea = experiment: Foliar protection for cucumber powdery mildew control; type: in vivo; settings: foliar spray on Cucumis sativus cv. Straight Eight, inoculated 24 hours after treatment, evaluated 7 days later
Method in brief: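 Protective foliar spray on 10-day-old Straight Eight cucumbers, with S. fuliginea spores dusted from infected stock plants 24 h after treatment. Disease developed at 23–27 °C, 60% RH and a 16 h photoperiod. Leaves were rated for mildew growth after 7 days; test rates 10 ppm or below.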

[6] = test system: Mycosphaerella graminicola (synthetic Septoria tritici); experiment: Foliar protection test for wheat septoria leaf blotch control; type: in vivo; settings: foliar spray on Triticum aestivum cv. WinterHawk, inoculated 1 hour after treatment, evaluated 16 days later
Fusarium graminearum [7] = type: in vivo; settings: spray on flowering Triticum aestivum cv. Samson, inoculated 24 hours after treatment, evaluated 14 days later
Puccinia triticina = experiment: Foliar protection test for wheat leaf rust control; type: in vivo; settings: foliar application to wheat (Triticum aestivum cv. Winterhawk), evaluated 10 days later
Phakopsora pachyrhizi = experiment: Foliar protection test for Asian soybean rust control; type: in vivo; settings: foliar application to soybean (Glycine max AG4832), percent disease area evaluated 14 days later
Fusarium graminearum [8] = type: in vivo; settings: corn from treated seeds, 0.025 mg/seed, F. graminearum inoculated, Table 12
[9] = test system: Blumeria graminis f. sp. hordei; experiment: Early foliar disease control via seed treatment (barley powdery mildew); type: in vivo; settings: seed treatment rate 0.025 mg/seed; barley inoculated 7 days after planting, evaluated 7 days later
Procedure: Barley seeds (Hordeum vulgare cv. Perry or Conlon) were treated with a test compound dissolved in pure acetone, in which the acetone solution (1 mL) was used per 50 seeds in glass jars in a fume hood. The seeds were swirled in the glass jars by hand until no obvious presence of acetone remained and the seeds were mostly dry. Plants were grown for 7 days in 2-inch square pots containing Metromix 200 medium amended with fertilizer. […] After inoculation with the pathogen of Blumeria graminis f. sp. hordei, plants were kept at conditions of 20 to 22° C., 200 uM of light, 70% humidity to facilitate infection and disease development. At 7 days after planting (1st true leaf fully expanded), the plants were moved to the cooler chamber and inoculated by shaking well-colonized, untreated stock plants above the treated material. […] Efficacy was evaluated in 7 days later by examining leaves for colonization and growth of powdery mildew. Each side of each leaf was assigned a severity rating of 0, 1, 5, 10, 25, 50, 75, or 100 percent diseased area. Table 14 lists the results of barley powdery mildew control upon seed treatment with test compounds.

Rhizoctonia solani = experiment: Seed protectant for soybean seedling disease, R. solani; type: in vivo; settings: soybean from treated seeds, 0.025 mg/seed, R. solani inoculated
Procedure: (§3) The pathogen of Rhizoctonia solani inoculum was grown on sterile sorghum; and the pathogen of Pythium ultimum inoculum was grown on white millet.
(§4) Soybean seeds (Glycine max cv. AG4832) were planted in 2.5-inch square pots containing Berger BM2 germination mix amended with fertilizer (e.g., 14-14-14). Pots with soil were inoculated with the pathogen of R. solani or P. ultimum at time of planting. A hole was pressed into the soil to a depth of about 2 to 3 cm; the inoculum was added to the hole, followed by the seed which was then covered with soil. Two seeds per pot were planted. Plants were grown in a growth chamber at conditions of 20 to 24° C., 14 hour light cycle, 500 uM of light, and 65% humidity. The pots inoculated with P. ultimum were sub-irrigated every day; and the pots inoculated with R. solani were sub-irrigated every other day.
(§5) Seedling emergence was captured at 7 and 14 days after seeding. At 14 days, the top of the plant was removed and fresh weight was recorded. The plant weights from the seeds treated with test compounds (e.g., in formulations) were compared to the ones either from the inoculated non-treated seeds or non-inoculated non-treated seeds. Table 10 lists the results of the R. solani control in soybean upon seed treatment with test compounds, and Table 11 lists the results of the P. ultimum control in soybean upon seed treatment with test compounds, respectively.

Pythium ultimum = experiment: Seed protectant for soybean seedling disease, P. ultimum; type: in vivo; settings: soybean from treated seeds, 0.025 mg/seed, P. ultimum inoculated
Procedure: as §3, §4, §5

[10] = percentage of non-inoculated non-treated controls

SMILES	Barley Powdery Mildew Control at a compound concentration of 10 ppm or lower [5]	Cucumber Powdery Mildew Control at a compound concentration of 10 ppm or lower (Sphaerotheca fuliginea)	Septoria Leaf Blotch Control at a compound concentration of 25 ppm or lower [6]	Wheat Fusarium Head Blight Control at a compound concentration of 25 ppm or lower (Fusarium graminearum [7])	Wheat Leaf Rust Control at a compound concentration of 10 ppm or lower (Puccinia triticina)	Asian Soybean Rust Control at a compound concentration of 25 ppm or lower (Phakopsora pachyrhizi)	Plant Height (Fusarium graminearum [8]) [cm]	Barley Powdery Mildew Reduction (%) [9] [%]	other results
COc1ccc(F)cc1[C@H](Cn1c(=O)n(C(C)(C)C(=O)NC(C)C)c(=O)c2c(C)c(-n3nccn3)sc21)OC(C)C [Compound I-020, (R)-2-(1-(2-(5-fluoro-2-methoxyphenyl)-2-isopropoxyethyl)-5-methyl-2,4-dioxo-6-(2H-1,2,3-triazol-2-yl)-1,4-dihydrothieno[2,3-d]pyrimidin-3 (2H)-yl)-N-isopropyl-2-methylpropanamide]	AA (≥85% control of barley powdery mildew)	AA (≥85% control of cucumber powdery mildew)	B (from 50 to 69% control of wheat septoria leaf blotch)	B (from 50 to 69% control of wheat fusarium head blight)	B (from 50 to 69% control of wheat leaf rust)	B (from 50 to 69% control of Asian soybean rust)	40.53	91	IC90 (Botrtyis cinerea (Bc)): ≥ 0.08 µg/mL; IC90 [1]: 0.08 µg/mL (≈ 0.136 µM); IC90 (Diplodia maydis (Dm)): 0.08 µg/mL (≈ 0.136 µM); IC90 ([2]; ≥90% inhibition, 48 hours vs 2% DMSO control, read-out: Compound Concentration (ppm) sufficient for ≥90% inhibition of growth, Fm): 0.08 µg/mL (≈ 0.136 µM); IC90 ([3]; ≥90% inhibition, 48 hours vs 2% DMSO control, read-out: Compound Concentration (ppm) sufficient for ≥90% inhibition of growth, Fv): 0.4 µg/mL (≈ 0.682 µM); IC90 [4]: > 50 µg/mL; IC90 (Rhizoctonia solani (Rs); ≥90% inhibition, 48 hours vs 2% DMSO control, read-out: Compound Concentration (ppm) sufficient for ≥90% inhibition of growth, Rs): 0.08 µg/mL (≈ 0.136 µM); IC90 (Septoria tritici (St); Zymoseptoria tritici, 48 h, ≥90% inhibition, 48 hours vs 2% DMSO control, read-out: Compound Concentration (ppm) sufficient for ≥90% inhibition of growth, St): ≥ 2 µg/mL
CCOC(=O)c1sc2c(c1C)c(=O)n(C(C)(C)C(=O)NC(C)C)c(=O)n2C[C@H](OCCC#N)c1cc(F)ccc1OC [Compound I-181, (R)-ethyl-1-(2-(2-cyanoethoxy)-2-(5-fluoro-2-methoxyphenyl)ethyl)-3-(1-(isopropylamino)-2-methyl-1-oxopropan-2-yl)-5-methyl-2,4-dioxo-1,2,3,4-tetrahydrothieno[2,3-d]pyrimidine-6-carboxylate]	AA (≥85% control of barley powdery mildew)	AA (≥85% control of cucumber powdery mildew)	B (from 50 to 69% control of wheat septoria leaf blotch)	B (from 50 to 69% control of wheat fusarium head blight)	AA (≥85% control of wheat leaf rust)	B (from 50 to 69% control of Asian soybean rust)	47.63	57	IC90 ([2]; ≥90% growth inhibition, 48 hours, vs 2% DMSO control, read-out: Compound Concentration (ppm) sufficient for ≥90% inhibition of Fm): 0.08 µg/mL (≈ 0.133 µM); IC90 ([3]; ≥90% growth inhibition, 48 hours, vs 2% DMSO control, read-out: Compound Concentration (ppm) sufficient for ≥90% inhibition of Fv): 0.4 µg/mL (≈ 0.664 µM); IC90 (Rhizoctonia solani (Rs); ≥90% growth inhibition, 48 hours, vs 2% DMSO control, read-out: Compound Concentration (ppm) sufficient for ≥90% inhibition of Rs): 0.08 µg/mL (≈ 0.133 µM); Compound Concentration (ppm) sufficient for ≥90% inhibition of St (Septoria tritici (St); ≥90% growth inhibition, 48 hours, vs 2% DMSO control): ≥10.0 ppm; Plant Weight (Rhizoctonia solani; fresh weight at 14 days): 3.16 g; Improvement in plant weight (Rhizoctonia solani; [10]): 39.4%; Plant Weight (Pythium ultimum; fresh weight at 14 days): 4.73 g; Improvement in plant weight (Pythium ultimum; [10]): 76%
